Drawing on patent US12172983B2, “EGFR inhibitors” (Blueprint Medicines Corporation, priority 2019, dated 2024), this text covers IC50 for 15 molecules.

The structures appear in SMILES notation. Read-outs that look alike come from different tables or passages of the source.

One assay concerns the target T1, EGFR (L858R T790M C797S) (Homo sapiens, UniProt P00533, C797S/L858R/T790M).
T1 construct: purchased SignalChem E10-122VG
Kind of assay: Biochemical EGFR inhibition assay (Caliper mobility shift), EGFR LRTMCS mutant. The following applies: inhibitory activity against EGFR LRTMCS mutant; apparent IC50; read-out: Ext Enz LRTMCS. The essentials:
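Apparent IC50s were derived by plotting percent activity against the log of compound concentration. Activity was measured as phosphopeptide electrophoretically separated from substrate, after reactions at room temperature reached 10% to 20% phosphorylation and were halted with 35 mM EDTA.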

Assay [1] concerns phosphorylation of EGFR (Tyr1068) in NCI-H1975 cell line that harbors the EGFR L858R T790M mutations. Kind of assay: NCI-H1975 pEGFR AlphaLISA assay. The following applies: 4-5 hours incubation, read-out: Ext pEGFR H1975. The class given is cell-based. The essentials: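 NCI-H1975 cells (EGFR L858R/T790M) seeded overnight, then treated with compound for 4-5 h at 37 °C/5% CO2. After lysis, p-EGFR (Tyr1068) quantified by AlphaLISA SureFire Ultra with acceptor then donor beads; IC50 fitted from percent inhibition versus log concentration.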

[2] abbreviates: Homo sapiens, NCI-H1975, inhibition of phosphorylation of mutant EGFR in NCI-H1975 cells.
Setting [3] is: inhibition of phosphorylation of mutant EGFR in NCI-H1975 cells.

T1 sequence (P00533 25-1210 T790M/C797S/L858R): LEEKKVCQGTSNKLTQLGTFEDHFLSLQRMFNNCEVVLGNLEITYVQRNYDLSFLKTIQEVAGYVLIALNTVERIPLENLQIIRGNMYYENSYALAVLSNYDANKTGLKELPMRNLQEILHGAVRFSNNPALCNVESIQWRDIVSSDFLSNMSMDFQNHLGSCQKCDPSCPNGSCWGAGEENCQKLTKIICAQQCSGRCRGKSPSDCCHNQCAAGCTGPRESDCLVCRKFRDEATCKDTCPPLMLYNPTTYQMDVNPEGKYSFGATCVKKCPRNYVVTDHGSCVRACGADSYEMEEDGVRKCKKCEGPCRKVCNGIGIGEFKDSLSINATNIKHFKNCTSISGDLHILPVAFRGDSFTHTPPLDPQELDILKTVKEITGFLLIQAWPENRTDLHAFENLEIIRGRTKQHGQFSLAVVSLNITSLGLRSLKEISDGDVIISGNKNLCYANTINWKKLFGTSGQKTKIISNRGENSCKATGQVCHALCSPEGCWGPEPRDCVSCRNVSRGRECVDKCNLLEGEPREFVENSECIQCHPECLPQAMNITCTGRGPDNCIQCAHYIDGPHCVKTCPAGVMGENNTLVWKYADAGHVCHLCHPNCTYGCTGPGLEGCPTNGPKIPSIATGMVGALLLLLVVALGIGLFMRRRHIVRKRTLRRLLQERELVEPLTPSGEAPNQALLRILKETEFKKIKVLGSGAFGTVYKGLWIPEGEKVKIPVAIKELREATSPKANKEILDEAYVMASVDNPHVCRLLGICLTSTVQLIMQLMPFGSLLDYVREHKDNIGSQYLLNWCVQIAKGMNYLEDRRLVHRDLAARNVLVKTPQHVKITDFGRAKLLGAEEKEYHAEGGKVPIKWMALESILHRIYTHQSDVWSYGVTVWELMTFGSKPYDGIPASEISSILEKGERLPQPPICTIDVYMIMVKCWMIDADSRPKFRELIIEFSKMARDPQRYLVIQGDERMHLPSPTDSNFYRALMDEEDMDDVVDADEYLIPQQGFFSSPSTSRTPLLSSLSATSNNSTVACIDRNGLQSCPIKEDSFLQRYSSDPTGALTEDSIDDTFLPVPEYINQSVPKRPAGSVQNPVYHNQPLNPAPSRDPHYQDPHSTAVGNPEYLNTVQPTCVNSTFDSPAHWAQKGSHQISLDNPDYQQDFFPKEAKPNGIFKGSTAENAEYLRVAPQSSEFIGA

Consider `CO[C@@H]1CCN(c2nccc(Nc3cc4c(C(C)C)ccc(N5C[C@H](CS(C)(=O)=O)[C@H]5C)c4cn3)n2)C[C@@H]1CO` (single isomer, unassigned) [Compound 173, [(3R,4R)-1-[4-({8-[(2R,3S)-3-(methanesulfonylmethyl)-2-methylazetidin-1-yl]-5-(propan-2-yl)isoquinolin-3-yl}amino)pyrimidin-2-yl]-4-methoxypiperidin-3-yl]methanol or [(3S,4S)-1-[4-({8-[(2R,3S)-3-(methanesulfonylmethyl)-2-methylazetidin-1-yl]-5-(propan-2-yl)isoquinolin-3-yl}amino)pyrimidin-2-yl]-4-methoxypiperidin-3-yl]methanol], for which the figures for the IC50 (at EGFR (L858R T790M C797S); in assay [1] (setting [2])) were 15.1 to 20 nM and 20.1 to 30 nM, respectively.

Take `CO[C@@H]1CCN(c2nccc(Nc3cc4c(C(C)C)ncc(N5CC(CS(C)(=O)=O)C5)c4cn3)n2)C[C@]1(C)F` [Compound 144, N-{2-[(3S,4R)-3-fluoro-4-methoxy-3-methylpiperidin-1-yl]pyrimidin-4-yl}-8-[3-(methanesulfonylmethyl)azetidin-1-yl]-5-(propan-2-yl)-2,6-naphthyridin-3-amine]: the IC50 on EGFR (L858R T790M C797S) was at most 15 nM; in assay [1] (setting [2]) it was at most 10 nM.

As for `CN[C@H]1CCN(c2nccc(Nc3cc4c(C(C)C)ccc(N5C[C@H](CS(C)(=O)=O)[C@H]5C)c4cn3)n2)C[C@H]1F` (single isomer, unassigned) [Compound 307, N-{2-[(3S,4R)-3-fluoro-4-(methylamino)piperidin-1-yl]pyrimidin-4-yl}-8-[(2R,3S)-3-(methanesulfonylmethyl)-2-methylazetidin-1-yl]-5-(propan-2-yl)isoquinolin-3-amine or N-{2-[(3R,4S)-3-fluoro-4-(methylamino)piperidin-1-yl]pyrimidin-4-yl}-8-[(2R,3S)-3-(methanesulfonylmethyl)-2-methylazetidin-1-yl]-5-(propan-2-yl)isoquinolin-3-amine], the results for the IC50 (at EGFR (L858R T790M C797S); in assay [1] (setting [3])) were 20.1 to 30 nM and 10.1 to 20 nM, respectively.

Consider `CCS(=O)(=O)C[C@H]1CN(c2cnc(C(C)C)c3cc(Nc4ccnc(N5CC[C@@](C)(O)C(F)(F)C5)n4)ncc23)[C@@H]1C` (single isomer, unassigned) [Compound 231, (4R)-1-[4-({8-[(2R,3S)-3-[(ethanesulfonyl)methyl]-2-methylazetidin-1-yl]-5-(propan-2-yl)-2,6-naphthyridin-3-yl}amino)pyrimidin-2-yl]-3,3-difluoro-4-methylpiperidin-4-ol or (4S)-1-[4-({8-[(2R,3S)-3-[(ethanesulfonyl)methyl]-2-methylazetidin-1-yl]-5-(propan-2-yl)-2,6-naphthyridin-3-yl}amino)pyrimidin-2-yl]-3,3-difluoro-4-methylpiperidin-4-ol], for which the results for the IC50 (on EGFR (L858R T790M C797S); in assay [1] (setting [2])) were at most 15 nM and at most 10 nM, respectively.

For `CO[C@@H]1[C@H](F)CN(c2nccc(Nc3cc4c(C(C)C)ccc(N5C[C@H](CS(C)(=O)=O)[C@H]5C)c4cn3)n2)C[C@@H]1O` (single isomer, unassigned) [Compound 203, (3R,4R,5S)-5-fluoro-1-[4-({8-[(2R,3S)-3-(methanesulfonylmethyl)-2-methylazetidin-1-yl]-5-(propan-2-yl)isoquinolin-3-yl}amino)pyrimidin-2-yl]-4-methoxypiperidin-3-ol or (3S,4S,5R)-5-fluoro-1-[4-({8-[(2R,3S)-3-(methanesulfonylmethyl)-2-methylazetidin-1-yl]-5-(propan-2-yl)isoquinolin-3-yl}amino)pyrimidin-2-yl]-4-methoxypiperidin-3-ol], the IC50 was 15.1 to 20 nM on EGFR (L858R T790M C797S) and at most 10 nM in assay [1] (setting [3]).

Consider `CO[C@H]1[C@@H](O)CN(c2nccc(Nc3cc4c(C(C)C)ncc(N5C[C@H](CS(C)(=O)=O)[C@H]5C)c4cn3)n2)CC1(F)F` (single isomer, unassigned) [Compound 234, (3S,4S)-5,5-difluoro-1-[4-({8-[(2R,3S)-3-(methanesulfonylmethyl)-2-methylazetidin-1-yl]-5-(propan-2-yl)-2,6-naphthyridin-3-yl}amino)pyrimidin-2-yl]-4-methoxypiperidin-3-ol or (3R,4R)-5,5-difluoro-1-[4-({8-[(2R,3S)-3-(methanesulfonylmethyl)-2-methylazetidin-1-yl]-5-(propan-2-yl)-2,6-naphthyridin-3-yl}amino)pyrimidin-2-yl]-4-methoxypiperidin-3-ol], for which the IC50 (on EGFR (L858R T790M C797S); in assay [1] (setting [2])) was 20.1 to 30 nM throughout.

Take `CO[C@@H]1CN(c2nccc(Nc3cc4c(C(C)C)ccc(N5C[C@H](CS(C)(=O)=O)[C@H]5C)c4cn3)n2)C[C@H](F)[C@@H]1O` (single isomer, unassigned) [Compound 204, (3S,4R,5R)-3-fluoro-1-[4-({8-[(2R,3S)-3-(methanesulfonylmethyl)-2-methylazetidin-1-yl]-5-(propan-2-yl)isoquinolin-3-yl}amino)pyrimidin-2-yl]-5-methoxypiperidin-4-ol or (3R,4S,5S)-3-fluoro-1-[4-({8-[(2R,3S)-3-(methanesulfonylmethyl)-2-methylazetidin-1-yl]-5-(propan-2-yl)isoquinolin-3-yl}amino)pyrimidin-2-yl]-5-methoxypiperidin-4-ol]: the IC50 was at most 15 nM on EGFR (L858R T790M C797S) and at most 10 nM in assay [1] (setting [2]).

For `CCS(=O)(=O)C[C@H]1CN(c2ccc(C(C)C)c3cc(Nc4ccnc(N5CC[C@](C)(O)[C@H](F)C5)n4)ncc23)[C@@H]1C` (single isomer, unassigned) [Compound 187], the IC50 on EGFR (L858R T790M C797S) is 30.1 to 100 nM; in assay [1] (setting [2]) it was 10.1 to 20 nM.

Regarding `CCOc1cnc(N2CC(CS(C)(=O)=O)C2)c2cnc(Nc3ccnc(N4CC[C@@H](O)[C@@](C)(F)C4)n3)cc12` (single isomer, unassigned) [Compound 80], the IC50 on EGFR (L858R T790M C797S) was at most 15 nM; in assay [1] (setting [2]), 30.1 to 50 nM.

`CC(C)c1ccc(N2CC(C)(CS(C)(=O)=O)C2)c2cnc(Nc3ccnc(N4CC[C@@H](O)[C@@](C)(F)C4)n3)cc12` (single isomer, unassigned) [Compound 112]: the IC50 at EGFR (L858R T790M C797S) was at most 15 nM; in assay [1] (setting [2]), 10.1 to 20 nM.

`CO[C@@H]1[C@H](F)CN(c2nccc(Nc3cc4c(C(C)C)ccc(N5CC(CS(C)(=O)=O)C5)c4cn3)n2)C[C@@H]1O` (racemic) [Compound 146, (3S,4S,5R)-5-fluoro-1-(4-((5-isopropyl-8-(3-((methylsulfonyl)methyl)azetidin-1-yl)isoquinolin-3-yl)amino)pyrimidin-2-yl)-4-methoxypiperidin-3-ol and (3R,4R,5S)-5-fluoro-1-(4-((5-isopropyl-8-(3-((methylsulfonyl)methyl)azetidin-1-yl)isoquinolin-3-yl)amino)pyrimidin-2-yl)-4-methoxypiperidin-3-ol]: the IC50 lay in the range of 15.1 to 20 nM at EGFR (L858R T790M C797S) and 10.1 to 20 nM in assay [1] (setting [2]).

With `CCS(=O)(=O)C[C@H]1CN(c2ccc(C(C)C)c3cc(Nc4cnnc(N5CC[C@@H](OC)[C@@H](F)C5)n4)ncc23)[C@@H]1C` [Compound 288, 8-[(2R,3S)-3-[(ethanesulfonyl)methyl]-2-methylazetidin-1-yl]-N-{3-[(3S,4R)-3-fluoro-4-methoxypiperidin-1-yl]-1,2,4-triazin-5-yl}-5-(propan-2-yl)isoquinolin-3-amine], the IC50 at EGFR (L858R T790M C797S) was at most 15 nM; in assay [1] (setting [2]), at most 10 nM.

`CO[C@H]1CCN(c2nccc(Nc3cc4c(C(C)C)cnc(N5CC(C[S@@](C)(=N)=O)[C@H]5C)c4cn3)n2)C[C@H]1F` (single isomer, unassigned) [Compound 107, (1S)-(((2R)-1-(6-((2-((3R,4S)-3-fluoro-4-methoxypiperidin-1-yl)pyrimidin-4-yl)amino)-4-isopropyl-2,7-naphthyridin-1-yl)-2-methylazetidin-3-yl)methyl)(imino)(methyl)-λ^6-sulfanone or (1R)-(((2R)-1-(6-((2-((3R,4S)-3-fluoro-4-methoxypiperidin-1-yl)pyrimidin-4-yl)amino)-4-isopropyl-2,7-naphthyridin-1-yl)-2-methylazetidin-3-yl)methyl)(imino)(methyl)-λ^6-sulfanone]: the IC50 at EGFR (L858R T790M C797S) is at most 15 nM; in assay [1] (setting [3]), 10.1 to 20 nM.

With `CN[C@H]1CCN(c2nccc(Nc3cc4c(C(C)C)ccc(N5C[C@H](CS(C)(=O)=O)[C@H]5C)c4cn3)n2)CC1(F)F` (single isomer, unassigned) [Compound 310, N-{2-[(4R)-3,3-difluoro-4-(methylamino)piperidin-1-yl]pyrimidin-4-yl}-8-[(2R,3S)-3-(methanesulfonylmethyl)-2-methylazetidin-1-yl]-5-(propan-2-yl)isoquinolin-3-amine or N-{2-[(4S)-3,3-difluoro-4(methylamino)piperidin-1-yl]pyrimidin-4-yl}-8-[(2R,3S)-3-(methanesulfonylmethyl)-2-methylazetidin-1-yl]-5-(propan-2-yl)isoquinolin-3-amine], the values for the IC50 (on EGFR (L858R T790M C797S); in assay [1] (setting [3])) were at most 15 nM and at most 10 nM, respectively.

On to `CO[C@@H]1CCN(c2nccc(Nc3cc4c(C(C)C)cnc(N5C[C@H](CS(C)(=O)=O)[C@H]5C)c4cn3)n2)C[C@@H]1O` (single isomer, unassigned) [Compound 105, (3S,4R)-1-[4-({8-[(2R,3S)-3-(methanesulfonylmethyl)-2-methylazetidin-1-yl]-5-(propan-2-yl)-2,7-naphthyridin-3-yl}amino)pyrimidin-2-yl]-4-methoxypiperidin-3-ol or (3R,4S)-1-[4-({8-[(2R,3S)-3-(methanesulfonylmethyl)-2-methylazetidin-1-yl]-5-(propan-2-yl)-2,7-naphthyridin-3-yl}amino)pyrimidin-2-yl]-4-methoxypiperidin-3-ol], for which the figures for the IC50 (at EGFR (L858R T790M C797S); in assay [1] (setting [2])) were at most 15 nM and at most 10 nM, respectively.
